Earlier results in US20220218582A1, “METHOD FOR DYEING KERATINOUS MATERIAL, COMPRISING THE USE OF AN ORGANOSILICON COMPOUND, A CHROMOPHORIC COMPOUND, A MODIFIED FATTY ACID ESTER AND A SEALING REAGENT I” (Henkel AG & Co. KGaA, priority 2019, published 2022).

Details: 25° C.

Row | solubility in water (in words) | Compound | solubility in water
1 | – | O=S(=O)([O-])c1ccc(N=Nc2c(O)ccc3ccccc23)cc1.[Na+] [Acid Orange 7, sodium salt of 4-[(2-hydroxy-1-naphthyl)azo]benzene sulphonate] | more than 7 g/L
2 | highly soluble | O=C([O-])C1=NN(c2ccc(S(=O)(=O)[O-])cc2)C(=O)C1N=Nc1ccc(S(=O)(=O)[O-])cc1.[Na+].[Na+].[Na+] (centres unmarked) [Acid Yellow 23, trisodium salt of 4,5-dihydro-5-oxo-1-(4-sulfophenyl)-4-((4-sulfophenyl)azo)-1H-pyrazole-3-carboxylic acid] | –
3 | – | O=C([O-])c1c(Cl)c(Cl)c(Cl)c(Cl)c1-c1c2c(Br)cc(=O)c(Br)c-2oc2c(Br)c(O)cc(Br)c12.O=C([O-])c1c(Cl)c(Cl)c(Cl)c(Cl)c1-c1c2c(Br)cc(=O)c(Br)c-2oc2c(Br)c(O)cc(Br)c12.[Na+].[Na+] [Acid Red 92, disodium salt of 3,4,5,6-tetrachloro-2-(1,4,5,8-tetrabromo-6-hydroxy-3-oxoxanthen-9-yl)benzoic acid] | greater than 10 g/L
4 | – | mixture of the sodium salts of mono- and disulfonic acids of 2-(2-quinolyl)-1H-indene-1,3(2H)-dione [Acid Yellow 3] | 20 mg/mL
5 | – | Nc1cc(S(=O)(=O)[O-])cc2cc(S(=O)(=O)[O-])c(N=Nc3ccccc3)c(O)c12.[Na+].[Na+] [Acid Red 33, disodium salt of 5-amino-4-hydroxy-3-(phenylazo)-naphthalene-2,7-disulphonate] | 2.5 mg/mL
